Structures can show the parent of a compound that is named as a salt. Where two headings read alike, the source gives them in different places.
Legend:
Type in all cases: cell-based
[1] = tested on: E. coli clinical isolate (strain 1); test: MIC by broth microdilution (alone and in combination with meropenam), strain 1; details: Escherichia coli, compound alone
Description: (§1) Compounds of the present invention alone, meropenam (MER) alone, and as a combination with test antibiotic (meropenam) were tested for antimicrobial activity by determing minimum inhibitory concentration (MIC, mg/L) using the broth microdilution method according to the guidelines of the Clinical Laboratories and Stansards Insitute (“Methods for Dilution Antimicrobial Suscetibility Tests for Bacterial that Grow Aerobiclly”, Approved standard, […]., Clinical and Laboratories Stanards Institute (CLSI) Document M7-A8, Wayne, Pa., USA, 2009). Meropenam as a test antibiotic compound was dissolved in DMSO. Meropenam was then diluted in microbial growth medium (Mueller-Hinton Broth II, cation adjusted) resulting in a final concention range of 0.125-64 mg/L in serial two-fold dilution. In all cases the filnal DMSO concentraion was less than 0.5%. Bacteria were added to 96-well microtitre plates containing the serial two-fold dilutions of the compoumds; the final cell density was appoximately 5x10^5 colony forming units/mL (CFU/mL). Plates were incubated at 37° C. for 18-24 hours and read visually. The MIC, i.e. the lowest concentration of the test compound that inhibited visible growth of the bacteria, was recorded. The same assay conditions were used when the compounds of present invention alone, and as a combination with test meropenam antibiotic compound was tested for minmum inhibitory concentration (MIC, mg/L). Whileest meropenam was serially diluted as descrribed above, a constant concentration of the present invention of 4 µg/mL was used.
(§2) Bacterial strains that were used to evaluate the antimicrobial activity using the MIC determination included but were not limited to E. coli clinical isolate (strain 1), E. coli 8739 (strain 2), K. pneumoniae clinical isolate (strain 3), K. pneumoniae 700603 (strain 4), E. cloacae clinical isolate (strain 5), E. cloacae 700323 (strain 6), A. baumannii clinical isolate (strain 7), A. baumannii 19606 (strain 8), P. aeruginosa clinical isolate (strain 9), P. aeruginosa 9027 (strain 10).

E. coli 8739 (strain 2) = test: MIC by broth microdilution (alone and in combination with meropenam), strain 2; details: Escherichia coli, compound alone
Description: as §1, §2

[2] = tested on: K. pneumoniae clinical isolate (strain 3); test: MIC by broth microdilution (alone and in combination with meropenam), strain 3; details: Klebsiella pneumoniae, compound alone
Description: as §1, §2

[3] = tested on: K. pneumoniae 700603 (strain 4); test: MIC by broth microdilution (alone and in combination with meropenam), strain 4; details: Klebsiella pneumoniae, compound alone
Description: as §1, §2

[4] = tested on: E. cloacae clinical isolate (strain 5); test: MIC by broth microdilution (alone and in combination with meropenam), strain 5; details: Enterobacter cloacae, compound alone
Description: as §1, §2

[5] = tested on: E. cloacae 700323 (strain 6); test: MIC by broth microdilution (alone and in combination with meropenam), strain 6; details: Enterobacter cloacae, compound alone
Description: as §1, §2

[6] = tested on: A. baumannii clinical isolate (strain 7); test: MIC by broth microdilution (alone and in combination with meropenam), strain 7; details: Acinetobacter baumannii, compound alone
Description: as §1, §2

[7] = tested on: A. baumannii 19606 (strain 8); test: MIC by broth microdilution (alone and in combination with meropenam), strain 8; details: Acinetobacter baumannii, compound alone
Description: as §1, §2

[8] = tested on: P. aeruginosa clinical isolate (strain 9); test: MIC by broth microdilution (alone and in combination with meropenam), strain 9; details: Pseudomonas aeruginosa, compound alone
Description: as §1, §2

[9] = tested on: P. aeruginosa 9027 (strain 10); test: MIC by broth microdilution (alone and in combination with meropenam), strain 10; details: Pseudomonas aeruginosa, compound alone
Description: as §1, §2

[10] = read-out: MIC, antibacterial activity of example alone

Row | SMILES | MIC ([1]; read-out: MIC) [µg/mL] | MIC (E. coli 8739 (strain 2); read-out: MIC) [µg/mL] | MIC ([2]; read-out: MIC) [µg/mL] | MIC ([3]; read-out: MIC) [µg/mL] | MIC ([4]; read-out: MIC) [µg/mL] | MIC ([5]; read-out: MIC) [µg/mL] | MIC ([6]; read-out: MIC) [µg/mL] | MIC ([7]; read-out: MIC) [µg/mL] | MIC ([8]; read-out: MIC) [µg/mL] | MIC ([9]; read-out: MIC) [µg/mL] | MIC [1, 10] [µg/mL] | MIC (E. coli 8739 (strain 2); [10]) [µg/mL] | MIC [2, 10] [µg/mL] | MIC [3, 10] [µg/mL] | MIC [4, 10] [µg/mL] | MIC [5, 10] [µg/mL] | MIC [6, 10] [µg/mL] | MIC [7, 10] [µg/mL] | MIC [8, 10] [µg/mL] | MIC [9, 10] [µg/mL]
1 | CC(=O)N1CCCC[C@@H]1C(=O)NC(=N)[C@@H]1CC[C@@H]2CN1C(=O)N2OS(=O)(=O)[O-].[Na+] [Ex.46, Sodium (2S,5R)-2-(N-((R)-1-acetylpiperidine-2-carbonyl)carbamimidoyl)-7-oxo-1,6-diazabicyclo[3.2.1]octan-6-yl Sulfate] | > 64 | > 64 | > 64 | > 64 | > 64 | > 64 | > 64 | > 64 | > 64 | > 64 | – | – | – | – | – | – | – | – | – | –
2 | CCC(=O)NC(=N)[C@@H]1CC[C@@H]2CN1C(=O)N2OS(=O)(=O)[O-].[Na+] [Ex.3, Sodium (2S,5R)-7-oxo-2-(N-propionylcarbamimidoyl)-1,6-diazabicyclo[3.2.1]octan-6-yl Sulfate] | – | – | – | – | – | – | – | – | – | – | > 64 | > 64 | > 64 | > 64 | > 64 | > 64 | > 64 | > 64 | > 64 | > 64
3 | N=C(NC(=O)Cc1cccnc1)[C@@H]1CC[C@@H]2CN1C(=O)N2OS(=O)(=O)[O-].[Na+] [Ex.34, Sodium (2S,5R)-7-oxo-2-(N-(2-(pyridin-3-yl)acetyl)carbamimidoyl)-1,6-diazabicyclo[3.2.1]octan-6-yl sulfate] | – | – | – | – | – | – | – | – | – | – | > 64 | > 64 | > 64 | > 64 | > 64 | > 64 | > 64 | > 64 | > 64 | > 64
4 | N=C(NC(=O)CCN)[C@@H]1CC[C@@H]2CN1C(=O)N2OS(=O)(=O)[O-].[Na+] [Ex.11, Sodium (2S,5R)-2-(N-(3-aminopropanoyl)carbamimidoyl)-7-oxo-1,6-diazabicyclo[3.2.1]octan-6-yl Sulfate] | – | – | – | – | – | – | – | – | – | – | > 64 | > 64 | > 64 | > 64 | > 64 | > 64 | > 64 | > 64 | > 64 | > 64
5 | CC(=O)N1CCC[C@H](C(=O)NC(=N)[C@@H]2CC[C@@H]3CN2C(=O)N3OS(=O)(=O)[O-])C1.[Na+] [Ex.26, Sodium (2S,5R)-2-(N-((S)-1-acetylpiperidine-3-carbonyl)carbamimidoyl)-7-oxo-1,6-diazabicyclo[3.2.1]octan-6-yl Sulfate] | – | – | – | – | – | – | – | – | – | – | > 64 | > 64 | > 64 | > 64 | > 64 | > 64 | > 64 | > 64 | > 64 | > 64
6 | CN1CCN(CC(=O)NC(=N)[C@@H]2CC[C@@H]3CN2C(=O)N3OS(=O)(=O)[O-])CC1.[Na+] [Ex.42, Sodium (2S,5R)-2-(N-(2-(4-methylpiperazin-1-yl)acetyl)carbamimidoyl)-7-oxo-1,6-diazabicyclo[3.2.1]octan-6-yl Sulfate] | – | – | – | – | – | – | – | – | – | – | > 64 | > 64 | > 64 | > 64 | > 64 | > 64 | > 64 | > 64 | > 64 | > 64
7 | CC(=O)N1CC[C@H](C(=O)NC(=N)[C@@H]2CC[C@@H]3CN2C(=O)N3OS(=O)(=O)[O-])C1.[Na+] [Ex.30, Sodium (2S,5R)-2-(N-((S)-1-acetylpyrrolidine-3-carbonyl)carbamimidoyl)-7-oxo-1,6-diazabicyclo[3.2.1]octan-6-yl Sulfate] | – | – | – | – | – | – | – | – | – | – | > 64 | > 64 | > 64 | > 64 | > 64 | > 64 | > 64 | > 64 | > 64 | > 64
8 | N=C(NC(=O)CN1CCCCC1)[C@@H]1CC[C@@H]2CN1C(=O)N2OS(=O)(=O)[O-].[Na+] [Ex.35, Sodium (2S,5R)-7-oxo-2-(N-(2-(piperidin-1-yl)acetyl)carbamimidoyl)-1,6-diazabicyclo[3.2.1]octan-6-yl Sulfate] | – | – | – | – | – | – | – | – | – | – | > 64 | > 64 | > 64 | > 64 | > 64 | > 64 | > 64 | > 64 | > 64 | > 64

Continued, values first:

Row | MIC ([1]; read-out: MIC) [µg/mL] | MIC (E. coli 8739 (strain 2); read-out: MIC) [µg/mL] | MIC ([2]; read-out: MIC) [µg/mL] | MIC ([3]; read-out: MIC) [µg/mL] | MIC ([4]; read-out: MIC) [µg/mL] | MIC ([5]; read-out: MIC) [µg/mL] | MIC ([6]; read-out: MIC) [µg/mL] | MIC ([7]; read-out: MIC) [µg/mL] | MIC ([8]; read-out: MIC) [µg/mL] | MIC ([9]; read-out: MIC) [µg/mL] | MIC [1, 10] [µg/mL] | MIC (E. coli 8739 (strain 2); [10]) [µg/mL] | MIC [2, 10] [µg/mL] | MIC [3, 10] [µg/mL] | MIC [4, 10] [µg/mL] | MIC [5, 10] [µg/mL] | MIC [6, 10] [µg/mL] | MIC [7, 10] [µg/mL] | MIC [8, 10] [µg/mL] | MIC [9, 10] [µg/mL] | SMILES
9 | – | – | – | – | – | – | – | – | – | – | > 64 | > 64 | > 64 | > 64 | > 64 | > 64 | > 64 | > 64 | > 64 | > 64 | N=C(NC(=O)C1CCNCC1)[C@@H]1CC[C@@H]2CN1C(=O)N2OS(=O)(=O)[O-].[Na+] [Ex.18, Sodium (2S,5R)-7-oxo-2-(N-(piperidine-4-carbonyl)carbamimidoyl)-1,6-diazabicyclo[3.2.1]octan-6-yl Sulfate]
10 | – | – | – | – | – | – | – | – | – | – | > 64 | > 64 | > 64 | > 64 | > 64 | > 64 | > 64 | > 64 | > 64 | > 64 | N=C(NC(=O)c1cccnc1)[C@@H]1CC[C@@H]2CN1C(=O)N2OS(=O)(=O)O [Ex.5, (2S,5R)-2-(N-nicotinoylcarbamimidoyl)-7-oxo-1,6-diazabicyclo[3.2.1]octan-6-yl Hydrogen Sulfate]
11 | – | – | – | – | – | – | – | – | – | – | > 64 | > 64 | > 64 | > 64 | > 64 | > 64 | > 64 | > 64 | > 64 | > 64 | N=C(NC(=O)c1nc(-c2ccccc2)cs1)[C@@H]1CC[C@@H]2CN1C(=O)N2OS(=O)(=O)[O-].[Na+] [Ex.44, Sodium (2S,5R)-7-oxo-2-(N-(4-phenylthiazole-2-carbonyl)carbamimidoyl)-1,6-diazabicyclo[3.2.1]octan-6-yl Sulfate]
12 | – | – | – | – | – | – | – | – | – | – | > 64 | > 64 | > 64 | > 64 | > 64 | > 64 | > 64 | > 64 | > 64 | > 64 | N=C(NC(=O)c1ccc(F)cc1)[C@@H]1CC[C@@H]2CN1C(=O)N2OS(=O)(=O)O [Ex.17, (2S,5R)-2-(N-(4-fluorobenzoyl)carbamimidoyl)-7-oxo-1,6-diazabicyclo[3.2.1]octan-6-yl Hydrogen Sulfate]
13 | – | – | – | – | – | – | – | – | – | – | > 64 | > 64 | > 64 | > 64 | > 64 | > 64 | > 64 | > 64 | > 64 | > 64 | N=C(NC(=O)CC1CCCCC1)[C@@H]1CC[C@@H]2CN1C(=O)N2OS(=O)(=O)[O-].[Na+] [Ex.36, Sodium (2S,5R)-2-(N-(2-cyclohexylacetyl)carbamimidoyl)-7-oxo-1,6-diazabicyclo[3.2.1]octan-6-yl Sulfate]
14 | – | – | – | – | – | – | – | – | – | – | > 64 | > 64 | > 64 | > 64 | > 64 | > 64 | > 64 | > 64 | > 64 | > 64 | N=C(NC(=O)C1CCCCC1)[C@@H]1CC[C@@H]2CN1C(=O)N2OS(=O)(=O)[O-].[Na+] [Ex.37, Sodium (2S,5R)-2-(N-(cyclohexanecarbonyl)carbamimidoyl)-7-oxo-1,6-diazabicyclo[3.2.1]octan-6-yl Sulfate]
15 | – | – | – | – | – | – | – | – | – | – | > 64 | > 64 | > 64 | > 64 | > 64 | > 64 | > 64 | > 64 | > 64 | > 64 | N=C(NC(=O)c1csc(C(F)(F)F)n1)[C@@H]1CC[C@@H]2CN1C(=O)N2OS(=O)(=O)[O-].[Na+] [Ex.24, Sodium (2S,5R)-7-oxo-2-(N-(2-(trifluoromethyl)thiazole-4-carbonyl)carbamimidoyl)-1,6-diazabicyclo[3.2.1]octan-6-yl Sulfate]

From patent publication US20230365561A1, “BETA-LACTAMASE INHIBITORS AND THEIR PREPARATION” (NINGXIA ACADEMY OF AGRICUL TURE AND FORESTRY SCIENCES, priority 2020, published 2023)
